In publication PMC8621208, “Antiseptic 9-Meric Peptide with Potency against Carbapenem-Resistant Acinetobacter baumannii Infection” (International Journal of Molecular Sciences, 2021):
Values after ≈ are worked out from the molar mass of the structure shown. Like-named read-outs stand apart in the source and are kept apart here. Where a SMILES comes first, the peptide text is derived from it. [ ]: non-standard residue; d: D form.

Assays:
[1] = system: sheep red blood cells (sRBC); assay: Hemolytic assay; assay type: cell-based; conditions: 100 μM
Method: The peptide-induced toxicity was determined by hemolytic against Sheep red blood cells (sRBC). Briefly, Fresh sRBC were washed at least three times with phosphate-buffered saline (PBS) and the debris were removed by centrifugation (1000× g for 5 min, 4 °C). All the peptides including melittin control (0.2–100 μM) and positive control (1% (v/v) triton X-100) were incubated with 4% (v/v) sRBC for 1 h at 37 °C followed by centrifugation at 1000× g for 5 min. The supernatant was measured at 405 nm using a microplate reader.

[2] = system: A. baumannii; assay: MIC, broth dilution; assay type: cell-based, Acinetobacter baumannii KCCM 40203; conditions: 16 h, MH media, read-out: Minimal Inhibitory Concentration (MIC)
Description: (§1) Escherichia coli KCTC 1682 was obtained from the Korean Collection for Type Cultures (KCTC) (Jeongeup-si, Korea), Acinetobacter baumannii KCCM 40203, Pseudomonas aeruginosa KCCM 11328 from the Korea Culture Center of Microorganisms (KCCM) (Seoul, Korea). Klebsiella pneumoniae NCCP 16054 were obtained from the National Culture Collection for Pathogens (NCCP) (Osong, Korea). Additionally, two carbapenem-resistant E. coli (CREC E1 and E2), 11 carbapenem-resistant A. baumannii (CRAB C0–C10) and two carbapenem-resistant K. pneumoniae (CRKP K1 and K2) were isolated from the patients, who presented symptoms and signs of infection at Korea University Anam Hospital (Seoul, Korea) (IRB registration no. 2020AN0157, 4 March 2021). CRAB C0–C10 have the OXA-23 gene with carbapenem-resistance.
(§2) The minimum inhibitory concentrations (MIC) were determined using broth dilution method. Briefly, all the mentioned bacterial strains were grown overnight at 37 °C by Muller–Hinton (MH) media. […] After 16 h incubation, the bacterial growth was read at 600 nm using a SpectraMAX microplate reader (Molecular Devices, San Jose, CA, USA).

[3] = system: A. baumannii; assay type: cell-based, Acinetobacter baumannii; conditions: peptide pre-incubated 6 h at 37 °C
Method: All the peptides at their MICs were pre-incubated with proteolytic enzymes such as trypsin and α-chymotrypsin (10,000:1; peptide: enzyme ratio) for 6 h at 37 °C. Then, 100 μL of peptide-protease cocktail was added to the 100 µL bacterial suspension (E. coli, A. baumannii and CRAB C0, 2 × 10^5 CFU/mL) and further incubated for 16 h at 37 °C. Bacterial suspension without peptide and protease served as negative control. The analysis was repeated at three times using independent experiments, and the degree of bacterial growth was measured at 600 nm using a microplate reader.

[4] = system: human kidney (HK)-2 cells; assay: Cytotoxicity, WST-8 assay; assay type: cell-based; conditions: 100 μM, 24 h
Method: Figure 6 In vitro cytotoxicity of Pro9-3 and their analogues. (A) Dose-response curve represent the hemolytic activity of peptides against sheep red blood cell (sRBC). Concentration-dependent (0–100 μM) toxic effects induced by peptides on (B) RAW 264.7 murine macrophage cells and (C) human kidney (HK)-2 cells for 24 h. Melittin was used as a control. Statistical analysis was performed using two-way analysis of variance (ANOVA) with Dunnett’s comparison test. Values are expressed as mean ± SEM of three independent experiments. * p < 0.05, ** p < 0.01, *** p < 0.001, and ns, non-significant compared with the control.
RAW 264.7 mouse macrophage cells and Human kidney (HK)-2 cells were obtained from Korean cell line bank (Seoul, Korea) and the cells were maintained in DMEM culture media (Thermo Fischer Scientific Inc., Waltham, MA, USA) supplemented with 10% fetal bovine serum, 1% penicillin/streptomycin at 37 °C in a humidified 5% CO2 incubator. The cytotoxicity of the peptides was analyzed using WST-8 cell proliferation assay (Biomax Co, Ltd., Seoul, Korea), and the experiment was performed according to the kit protocol. Briefly, cells (1 × 10^4) were seeded in 96-well plate and the peptides treatment (0–100 μM) were initiated at 80% confluency and then for 24 h. After incubation, WST-8 reagent was added and the change in absorbance was read at 450 nm against reagent blank, and values are expressed as percent cell survival.

[5] = In vivo toxicity, serum AST, ALT, BUN; parameters: species or system ICR mice; conditions: mice, 1 and 5 mg/kg i.p., 24 h
Method: Control mice received phosphate-buffered saline only and the treatment was performed for 24 h. (B) R-Pro9-3D prolonged the survival rate of mice infected with CRAB C0. […] In sepsis model, mice (5 mice per group) were treated with R-Pro9-3D (1 mg/kg) for 1 h and the antiseptic analyses were evaluated after CRAB C0 (6 × 10^6 CFU/mouse, 16 h) infection. (C) R-Pro9-3D restricted the bacterial entry in the lung, liver, and kidneys. The corresponding organ lysates were plated onto agar plates and the total no of bacterial colonies were scored. (D) R-Pro9-3D effectively normalized the endotoxin levels in CRAB C0-infected mice. (E–G) Effect of R-Pro9-3D on serum levels of AST, ALT and BUN. (H–K) R-Pro9-3D inhibited the production of inflammatory cytokines (TNF-α and IL-6) in the serum and lung lysates of CRAB C0-infected mice, as measured by enzyme-linked immunosorbent assay (ELISA). (L) Photomicrograph show the modulatory effect of R-Pro9-3D on neutrophil infiltration in the hematoxylin and eosin (H&E)-stained lung tissues (Magnification 20×, Scale bar 100 μm). […] Values are expressed as mean ± SEM (Five mice per group). […]
The ICR mice (n = 5 per group) were intraperitoneally (i.p.) injected with R-Pro9-3D (1 mg and 5 mg/kg/day in PBS) and the serum levels of AST, ALT, and BUN levels were determined using a standard kit from Asan Pharmaceutical as described previously.

[6] = system: CRAB C8; assay: microbe, parasite or virus in culture; conditions: CRAB C8
Description: as §1, §2

[7] = system: CRAB C1; assay: microbe, parasite or virus in culture; conditions: CRAB C1
Description: as §1, §2

[8] = system: K. pneumoniae; assay: microbe, parasite or virus in culture; conditions: K. pneumoniae; 16 h, MH media
Description: as §1, §2

[9] = system: CRAB C0 outer membrane; assay: Outer membrane permeability, NPN uptake; assay type: cell-based, carbapenem-resistant A. baumannii
Method: The effect of peptides on the disturbance of CRAB C0 outer membrane was analyzed using 1-N-phenylnaphthylamine (NPN, Sigma-Aldrich, St. Louis, MO, USA) uptake assay, as previously described. Briefly, CRAB C0 cell suspensions were mixed with NPN (1 mM) and the background fluorescence was recorded for subtraction (excitation λ = 350 nm, emission λ = 420 nm) using RF-6000PC fluorescent spectrophotometer (Shimadzu Scientific Instruments, Kyoto, Japan). Changes in the NPN fluorescence were recorded after addition of different concentrations of peptides and values are expressed as—fluorescence intensity (A.U.).

In the case of `CC[C@@H](C)[C@@H](NC(=O)[C@@H](Cc1c[nH]c2ccccc12)NC(=O)[C@@H](CCCNC(=N)N)NC(=O)[C@H](N)CCCNC(=N)N)C(=O)N[C@H](C)C(=O)N[C@H](CC(C)C)C(=O)N[C@H](Cc1c[nH]c2ccccc12)C(=O)N[C@H](CC(C)C)C(=O)N[C@H](CCCNC(=N)N)C(N)=O` [R-Pro9-3D, rrwialwlr-NH2] (H-[dR][dR][dW][dI][dA][dL][dW][dL][dR]-NH2), the Hemolytic activity [1] is reported as 1.2%, the MIC [2] is reported as 4 µM (≈ 5.07 µg/mL) and the “Minimal Inhibitory Concentration (MIC)” value ([3]; A. baumannii + Trypsin) is reported as 4 µM. The “Minimal Inhibitory Concentration (MIC)” value ([3]; A. baumannii + α-Chymotrypsin) was 4 µM, the “Toxicity in human kidney (HK)-2 cells” value [4] was 9.6% and the “Serum levels of AST, ALT and BUN” value [5] was “Neither dose of R-Pro9-3D elevated the levels of these enzymes”. The “Minimal Inhibitory Concentration (MIC)” value [6] was 4 µM, the “Minimal Inhibitory Concentration (MIC)” value [7] was 8 µM and the “Minimal Inhibitory Concentration (MIC)” value [8] was 8 µM. The “NPN uptake (outer membrane permeabilization)” value [9] was “greater NPN uptake than their L-form peptides”.
